Assays:
[1] = target: T1, human ERK-2 (Mitogen Activated Kinase 1) (Homo sapiens, UniProt P28482); assay: ERK-2 Enzymatic Assay; type: biochemical; conditions: TABLE I; 5nM ERK-2 enzyme, 25µM ATP, S/T17 peptide substrate; single assay or mean of multiple assays
T1 construct: N-terminal 6-His fusion protein in E. coli and corresponding to aa 8-360; 6-His (N); made in house; host or cells: E. coli
In short: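 Values are single or averaged runs. Reactions used E. coli-expressed 6-His ERK-2 aa 8-360 and Omnia S/T17 peptide substrate at ambient temperature.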

[2] = system: PMA-stimulated P90RSK(Ser380) phosphorylation; assay: Cellular P90RSK(Ser380) Phosphorylation Assay; type: cell-based; conditions: Homo sapiens; HepG2 cells, 1.5 h compound incubation, PMA 100ng/mL 30 min, normalized to GAPDH signal; single assay or mean of multiple assays
Description: Cellular P90RSK(Ser380) Phosphorylation Assay
Inhibition of PMA-stimulated P90RSK(Ser380) phosphorylation was determined by the following in vitro cellular mechanistic assay, which comprises incubating cells with a compound for 1.5 h and quantifying fluorescent pP90RSK(Ser380) signal on fixed cells and normalizing to GAPDH signal.
Materials and Methods: HepG2 cells were obtained from ATCC and grown in DMEM supplemented with 10% fetal bovine serum. Cells were plated in 96-well plates at 35,000 cells/well and allowed to attach overnight at 37 °C/5% CO2. Diluted compounds were then added at a final concentration of 0.5% DMSO. After 1.5 h compound incubation, cells were stimulated with the addition of PMA (phorbol 12-myristate 13-acetate) at a final concentration of 100ng/mL; the PMA stimulation was a 30-min incubation at 37 °C/5% CO2. After the 30-minute PMA stimulation, cells were washed with PBS and fixed in 3.7% formaldehyde in PBS at room temperature for 15-20 min. This was followed by another wash in PBS and then permeabilization in 100% MeOH at room temperature for 10-15 min. Following the permeabilization incubation, cells were washed in PBS/0.05% Tween-20, followed by a block in Odyssey blocking buffer (LI-COR Biosciences) for at least 1 hour. Antibodies to phosphorylated P90RSK(Ser380) (Cell Signaling #9335, rabbit monoclonal) and GAPDH (Fitzgerald 10R-G109a, mouse monoclonal) were added to the cells and incubated overnight at 4 °C. pP90RSK(Ser380) antibody was used at a 1:250 dilution; GAPDH was used at a 1:10,000 dilution. After washing with PBS/0.05% Tween-20, the cells were incubated with fluorescently-labeled secondary antibodies (Anti-rabbit-Alexa Flour680, Invitrogen Cat#A21109; Anti-mouse-IRDye800CW, Rockland Inc. Cat#610-131-121) for 1 h. Both secondary antibodies were used at a 1:1000 dilution. Cells were then washed and analyzed for fluorescence at both wavelengths using the Odyssey Infrared Imaging System (LI-COR Biosciences). Phosphorylated P90RSK(Ser380) signal was normalized to GAPDH signal. Representative data is in TABLE III (infra). The reported IC50 may be from a single assay or the mean of multiple assays.

HCT116 cells = assay: Cell Proliferation/Viability Assay (Cell Titer-Blue); type: cell-based; conditions: Homo sapiens, HCT-116, 3-day (72-hour) incubation, single assay or mean of multiple assays
Description: Cell Proliferation/Viability Assay
Viable cells after a 3-day (72-hour) incubation with ERK compounds were quantified using the Cell Titer-Blue Cell Viability Assay from Promega.
Materials and Methods: HCT116 cells were plated in 96 well micro-plates at a density of 1,000 cells/well. The cells were allowed to attach to micro-plate overnight at 37 °C/5% CO2. After overnight attachment, diluted compounds were then added to the cells at a final concentration of 0.5% DMSO. After 3 days (72 hours) at 37 °C/5% CO2, the number of viable cells was determined using the Cell Titer-Blue Cell Viability Assay from Promega. Briefly, Cell Titer-Blue reagent were added to the cells and incubated for 1 hour. Fluorescence (560nmexcitation/590nmemission) was then read using a fluorescence micro-plate reader. Background from high concentration Erk-inhibited wells was subtracted. Representative data is in TABLE III (infra). The reported IC50 may be from a single assay or the mean of multiple assays.

T1 sequence (P28482 8-360): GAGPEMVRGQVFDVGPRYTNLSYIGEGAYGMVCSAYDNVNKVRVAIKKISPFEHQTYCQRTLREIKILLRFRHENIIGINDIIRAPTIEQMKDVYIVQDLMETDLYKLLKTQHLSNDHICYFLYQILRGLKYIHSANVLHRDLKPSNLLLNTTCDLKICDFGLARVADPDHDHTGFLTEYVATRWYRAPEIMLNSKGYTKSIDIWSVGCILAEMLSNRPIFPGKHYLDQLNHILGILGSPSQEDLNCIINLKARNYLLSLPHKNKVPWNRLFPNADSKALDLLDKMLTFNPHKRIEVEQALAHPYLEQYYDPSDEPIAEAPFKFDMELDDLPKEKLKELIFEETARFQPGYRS

SMILES	IC50 [1] [µM]	IC50 (HCT116 cells) [µM]	IC50 [2] [µM]
C[C@@H](CO)Nc1ncc2ccc(C(=O)NC(c3ccc(Cl)c(F)c3)c3cnn(C)c3)cc2n1 (stereo partly drawn) [Compound I-1, N-((4-chloro-3-fluorophenyl)(1-methyl-1H-pyrazol-4-yl)methyl)-2-((S)-1-hydroxypropan-2-ylamino)quinazoline-7-carboxamide]		2.4	0.0755
Cn1cc(C(NC(=O)c2ccc3cnc(NC4CCOCC4)nc3c2)c2ccc(Cl)c(F)c2)cn1 (stereo not shown) [Compound I-2, 2-(Tetrahydro-pyran-4-ylamino)-quinazoline-7-carboxylic acid [(4-chloro-3-fluoro-phenyl)-(1-methyl-1H-pyrazol-4-yl)-methyl]-amide]		0.851	0.0227
O=C(NC(c1ccc(Cl)c(F)c1)c1ncno1)c1ccc2cnc(NC3CCOCC3)nc2c1 (stereo not shown) [Compound I-34, 2-(tetrahydro-pyran-4-ylamino)-quinazoline-7-carboxylic acid [(4-chloro-3-fluoro-phenyl)-[1,2,4]oxadiazol-5-yl-methyl]-amide]	0.0036	5	0.0791
O=C(N[C@@H](c1ccc(F)c(Cl)c1)[C@@]1(F)CCNC1)c1ccc2cnc(NC3CCOCC3)nc2c1 [Compound I-39]	0.0012	0.01	0.0174

Continued, in another order:

IC50 [1] [µM]	IC50 (HCT116 cells) [µM]	SMILES	IC50 [2] [µM]
0.0023	0.298	CC(C)Nc1ncc2ccc(C(=O)N[C@H](c3ccc(C(F)(F)F)c(F)c3)[C@@H]3CCCN3)cc2n1 (stereo in doubt) [Compound I-5, 2-isopropylamino-quinazoline-7-carboxylic acid [(S)-(3-fluoro-4-trifluoromethyl-phenyl)-(R)-pyrrolidin-2-yl-methyl]-amide]	0.0117
0.0021	0.272	O=C(N[C@@H](c1ccc(C(F)(F)F)c(F)c1)[C@@H]1CCCN1)c1ccc2cnc(NC3CCOCC3)nc2c1 [Compound I-3, 2-(Tetrahydropyran-4-ylamino)-quinazoline-7-carboxylic acid [(S)-(3-fluoro-4-tnfluoromethyl-phenyl)-(S)-pyrrolidin-2-yl-methyl]-amide]	0.046
0.0014	0.274	Cn1ccc([C@@H](NC(=O)c2cc(F)c3cnc(NC4CCOCC4)nc3c2)c2ccc(Cl)c(F)c2)n1 [Compound I-22, (S)-N-((4-chloro-3-fluorophenyl)(1-methyl-1H-pyrazol-3-yl)methyl)-5-fluoro-2-(tetrahydro-2H-pyran-4-ylamino)quinazoline-7-carboxamide]	0.0235
0.0025	2.1	Cn1cc([C@@H](NC(=O)c2ccc3cnc(N[C@H]4CCOC[C@H]4F)nc3c2)c2ccc(Cl)c(F)c2)cn1 [Compound I-28, 2-((3S,4S)-3-fluoro-tetrahydropyran-4-ylamino)-quinazoline-7-carboxylic acid [(S)-(4-chloro-3-fluoro-phenyl)-(1-methyl-1H-pyrazol-4-yl)-methyl]-amide]	0.0874
0.002	0.044	C[C@@H]1CC[C@H]([C@@H](NC(=O)c2ccc3cnc(NC4CCOCC4)nc3c2)c2ccc(Cl)c(F)c2)N1 [Compound I-35, 2-(tetrahydropyran-4-ylamino)-quinazoline-7-carboxylic acid [(S)-(4-chloro-3-fluoro-phenyl)-((2R,5R)-S-methyl-pyrrolidin-2-yl)-methyl]-amide]	0.0053

Reference: patent EP2739618B1, “QUINAZOLINE COMPOUNDS AS SERINE/THREONINE KINASE INHIBITORS” (Array Biopharma, Inc., priority 2011, dated 2013)
